From PubChem BioAssay AID977629 (Broad Institute, 2014)
Inconclusive results are not listed. The source made the active and inactive calls.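 How the source made its calls: active means drop in red signal of normal-ribosome bacteria at least twice that in human-like-ribosome bacteria, growth inhibited under 30%; inactive means the rest, inconclusive results apart.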

How the values were obtained:
[1] = growth inhibition of wild-type RFP versus h24-humanized GFP E. coli, dose response, h24 mutant GFP vs wild-type RFP, cherry-pick (AID 977629); details: E. coli WT-RFP / h24-humanized GFP mixed culture, 24 h; at 50 µM (top of the series)
[2] = test system: E. coli WT-RFP / h24-humanized GFP mixed culture, 24 h; assay: as above
[3] = measured here: total growth OD600
[4] = measured here: h24 humanized mutant GFP signal

Cc1noc(C)c1NC(=O)Nc1ccc2c(c1)C(=O)N([C@H](C)CO)C[C@@H](C)[C@@H](CN(C)C(=O)Nc1ccc3c(c1)OCO3)OCCCC[C@@H](C)O2
activity change, negative = inhibition [1]: 86.8 (inactive)

C[C@@H]1CCCCO[C@H](CN(C)C(=O)CCCN(C)C)[C@H](C)CN([C@@H](C)CO)C(=O)c2cc(NC(=O)Nc3cccc4ccccc34)ccc2O1
AC50 [2, 3]: > 100 µM | activity change, negative = inhibition [1]: 101 (inactive)

COc1ccc(Cn2c(-c3ccc(Cl)cc3)c[n+]3ccccc23)cc1
activity change, negative = inhibition [1]: 21 (inactive)

O=C(O)c1cc([N+](=O)[O-])ccc1NCc1ccccc1
AC50 [2, 4]: > 100 µM | AC50 [2, 3]: 5.79 µM | activity change, negative = inhibition [1]: -0.454 (inactive)

COc1ccc(-n2cc(-c3ccccc3)c3c(N4CCOCC4)ncnc32)cc1
AC50 [2, 3]: 27.8 µM | activity change, negative = inhibition [1]: 12.7 (inactive)

COc1ccc2[nH]c3c(=O)n(CCCCC(=O)NCCC(C)C)c(=S)[nH]c3c2c1
activity change, negative = inhibition [1]: 64.3 (inactive)

Cc1ccc(C)c(NC(=O)CSc2nc3nc(-c4cccs4)cc(C(F)(F)F)c3c(=O)[nH]2)c1
AC50 [2, 4]: 31.6 µM | AC50 [2, 3]: 20.1 µM | activity change, negative = inhibition [1]: 52.6 (inactive)

CCN(CC)CCn1c2ccccc2c2nc3ccc([N+](=O)[O-])cc3cc21
AC50 [2, 4]: 6.47 µM | AC50 [2, 3]: 7.41 µM | activity change, negative = inhibition [1]: 21.8 (inactive)

COC(=O)c1c(NC(=O)CCC(=O)O)sc(Cc2ccccc2)c1C
AC50 [2]: > 100 µM (inactive) | AC50 [2, 3]: 30 µM
